Data set [1] can be described thus: PAMPA model of passive BBB permeability. It counts as in vitro ADME. The conditions noted are these: PAMPA; passive transport; pH 7.4; 18 hrs; read-out: Effective permeability (pe), PAMPA. The procedure: PAMPA is used as an in vitro model of passive BBB permeability. An artificial membrane immobilized on a filter is placed between a donor and acceptor compartment. At the start of the test, a drug is introduced in the donor compartment. Following the permeation period, the concentration of the drug in the donor and acceptor compartments are measured using UV spectroscopy. Therefore the permeability of any compound with a UV chromophore can be determined by this method.
The tested compound stock solutions were diluted 200-fold in universal buffer at pH 7.4 and added to the donor wells. The filter membrane was coated with PBL in dodecane and the acceptor well was filled with pH 7.4 buffer. The acceptor filter plate was carefully put on the donor plate to form a ‘sandwich’ (consisting of the aqueous donor with test the compound on the bottom, an artificial lipid membrane in the middle, and an aqueous acceptor on the top). The test compound diffused from the donor well through the lipid membrane and into the acceptor well. The ‘sandwich’ was left undisturbed for 18 hrs while the permeation occurred. The concentration of the test compound in the acceptor, the donor, and the reference wells was determined using the UV plate reader. Effective permeability (Pe) of each compound was calculated by using the pION PSR4p software. Samples were analyzed in triplicate and the average of the three runs was reported. Quality control standards were run with each sample set to monitor the consistency of the analysis set.
In general terms: PAMPA measures passive passage across an artificial lipid membrane.

In data set [2] the test system is PC12 cells. The data set is described as follows: Dose response differentiation assay in PC12 cell line. Type of data set: cell-based. Conditions: 100 ng/ml; after 3 days of treatment. The procedure:
Stock of PC12 cultures were maintained in Ham's F12 medium supplemented with 2.5% fetal bovine serum (FBS), 15% of horse serum (HS) and 1% penicillin/streptomycin. The cell culture was maintained in 5% CO2 at 37° C.
PC12 cell differentiation was assessed by treating the cells with all the test compounds (G79, G80, and G81) at different testing concentration (2-20-100 ng/ml and 2-20-50 μg/ml). The cells were first plated into collagen-coated 24-wells plates with 2.5% FBS in the medium to be de-differentiated. After 72 hrs, the test compounds were added and NGF (Sigma Aldrich; 100 ng/ml) as positive control of differentiation. The number of differentiated cells, with neurite processes greater than two cell bodies in length, is counted after 3 days of treatment. The cell count is done in three randomly selected fields with 100 cells.

The subject of data set [3] is PC12 cells. Put plainly: Secretagogue activity assay (PC12 differentiation with antibody anti-NGF). Type of data set: cell-based. The procedure:
To assess if the tested compounds, G79, G80, and G81, act as secretagogues, inducing neurotrophic activity through the synthesis of NGF, PC12 cells were plated into collagen-coated 24-wells plates with only 2.5% FBS and after 72 hrs the cells were treated with the tested compounds (each one at 100 ng/ml) together with antibody anti-NGF (1 μg/ml, AbCam). After three days of treatment, the differentiation was evaluated. The cell count was done in three randomly selected fields with 100 cells.

Data set [4] concerns PC12 cells. Put plainly: Synergistic activity assay (PC12 differentiation in combination with NGF). It counts as cell-based. Conditions: NGF alone 100 ng/ml. The procedure: To evaluate if the small molecules G79, G80, and G81 interfere with the maximal activity of NGF or lead to additive effects, PC12 cells were plated into collagen-coated 24-wells plates with 2.5% FBS and treated after 72 h with the small chemicals (each one at 100 ng/ml) in combination with NGF at the concentration of 100 ng/ml. In the same experiment PC12 cells were treated with the small molecules or NGF alone, as controls. The number of differentiated cells was evaluated after three days of treatment. The cell count was done in three randomly selected fields with 100 cells.

The test system of data set [5] is PC12 cells. The data set is described as follows: Receptor activation assay (PC12 differentiation with anti-TrkA antibody). It counts as cell-based. As to the method:
The hypothesis that G79, G80, and G81 can act through the binding to the extracellular portion of TrkA (binding site) and activate the tyrosine kinase receptor was tested by treating the PC12 cells with the small chemicals in combination with the antibody anti-TrkA or the K252a, a tyrosine kinase inhibitor. For this purpose PC12 cells were plated into collagen-coated 24-wells plates with 2.5% FBS and after 72 hrs were incubated with the small molecules alone or in combination with anti-TrkA antibody (AbCam, 1:2000) or K252a. NGF (100 ng/ml) was used as control and added alone or in combination with anti-TrkA antibody or K252a. The number of differentiated cells was evaluated after three days of treatment. The cell count was done in three randomly selected fields with 100 cells.

In data set [6] the test system is PC12 cells. The data set is described as follows: Signalling inhibition assays (PC12 differentiation with LY294002 or PD98059). It counts as cell-based. The procedure: To evaluate if the transduction pathway induced by G79, G80, and G81 involves AKT and ERK activation, PC12 cell were treated with the test compounds in the presence of LY294002, an inhibitor of PI3K (an upstream activator of AKT) and PD98059, an inhibitor of MAPK kinase (an upstream activator of ERK). For this purpose, PC12 cells were plated into collagen-coated 24-wells plates with 2.5% FBS and after 72 hrs the cells were treated with the small molecules in combination with LY294002 (Sigma Aldrich, 10 μM) or PD98059 (Sigma Aldrich, 50 μM). NGF (100 ng/ml) was used as control and added alone or in combination with the inhibitors.

Data set [7] has as its system retinal ganglion cells (RGC). The data set is described as follows: Glaucoma model, count of retinal ganglion cells. It counts as in vivo, Sprague Dawley rats. Conditions: first experiment; eye drops, NGF 200, G79 200 and 400 μg/ml. As to the method: 12 Sprague Dawley rats (4 months of age) were anesthetized with […] and subjected to hypertonic saline solution injection into the episcleral vein of the right eye. Intraocular pressure (IOP) was measured before the operation and was monitored one time a week using a TonoLab for 7 weeks. Treatment with G79 was begun one week after glaucoma induction by topical application at the conjunctive. Two different experiments were performed.
In the first experiment, G79 was dissolved into physiological solution and was used at two different concentration (200 μg/ml and 400 μg/ml). NGF was used as positive control (200 μg/ml) and the physiological solution, used to dissolve all the molecules, was subministered as placebo. The animals were divided into 4 groups (3 animals in each group): glaucoma-G79 200 μg/ml; glaucoma-G79 […]; glaucoma-NGF; glaucoma-placebo. The left eye was used as the control without glaucoma. In both experiments, seven weeks after glaucoma induction, animals were sacrificed by overdose of anaesthetic and their eyes were taken and fixed in 4% of PFA. The eyes were included in paraffin and cut into 20 μm sections to be used for histological studies (hematoxilin-eosin staining). The cell count of the number of retinal ganglion cells (RGC) was performed randomly in ten different fields for each eye.
Rats were injected with a hypertonic solution in the eye that induced high intraocular pressure for five weeks. Animals were treated with eye drops of NGF ([…]), G79 ([…]) or placebo every day for five weeks. Animals with glaucoma and treated with placebo (saline) have a significant decrease in the number of retinal ganglion cells compared with control.
In the second experiment, G79 at the concentration of 200 μg/ml was used. The objective of this second experiment was to compare the efficacy of G79 to Timolol, the most common therapy for glaucoma that works by decreasing the intraocular pressure. Also in this experiment, a combination treatment with G79 and Timolol was performed. […]

The subject of the next data set is NSC-34 cells. Put plainly: In vitro model of ALS, serum deprivation of motoneuron-like cells (MTT). Conditions: G-CSF 2 μg/ml; serum deprivation 48 h. Type of data set: cell-based, mouse. As to the method:
Mouse motoneuron-like cells NCS-34 were cultured in DMEM (Gibco) supplemented with 10% heat inactivated FBS and 1% penicillin/streptomycin. The cell culture was maintained in a humidified atmosphere of 95% air and CO2 at 37° C.
The nutritional deprivation stress in motorneurons was conducted as described previously in Masahito T. et al., J. Neuropathol. Exp. Neurol. 65(8):816-825 (2006). To assess the effect of trophic stress condition on ALS, the presence of apoptosis was investigated using serum deprivation. NSC-34 cells were seeded in 24-well poly-lysinated plates at 30,000 cells/well and preincubated for 24 h in DMEM plus 10% FBS with various doses of G79, G80, and G81 (20 ng/ml, 100 ng/ml, 2 μg/ml, 20 μg/ml, 50 μg/ml), and G-CSF (2 μg/ml) or BDNF (20 ng/ml) which both were used as positive controls (Masahito T. et al., ibid; Elliot J. L., Neurobiology of Disease 6:310-320 (1999)). Then, the medium was removed and replaced with fresh DMEM without FBS. After 48 h, cell viability was assayed by MTT assay, as described previously.

In the case of `NC(=O)N1c2ccccc2C=Cc2ccccc21` [carbamazepine], the Papp at 18 h in data set [1] is 10.3 ×10⁻⁶ cm/s.
Same read-out and setting: as for `CC(C)NCC(O)COc1cccc2ccccc12` (stereo not shown) [propanolol], the figure is 11.5 ×10⁻⁶ cm/s.
For the molecule “NGF: homodimeric protein from the neurotrophin family; positive control of differentiation and survival”, the “number of differentiated cells in a field of 100 cells” value in the data set with PC12 cells [2] was found to be 16.1±1.9 cells. Also, the “number of differentiated cells for each field” value in the data set with PC12 cells [3] (100 ng/ml together with antibody anti-NGF (1 μg/ml)) is given as 12.8±6.3; in the data set with PC12 cells [3] (100 ng/ml, treatment alone) it was 20.7±7.1. Also, the “number of differentiated cells” value was determined as 20±7.1 in the data set on PC12 cells [4]; 12.8±6.3 in the data set on PC12 cells [5] (in combination with anti-TrkA antibody (1:2000)); 20.7±7.1 in the data set with PC12 cells [5] (treatment alone); 6.8±2.7 in the data set with PC12 cells [6] (plus LY294002 (10 μM), inhibitor of PI3K); 2.1±1.9 in the data set on PC12 cells [6] (plus PD98059 (50 μM), inhibitor of MAPK kinase); 20.7±7.1 in the data set with PC12 cells [6] (treatment alone). The “protection of retinal ganglion cells (number of RGC vs glaucoma-placebo)” value in data set [7] is “significant protection of the ganglion cells”.

B1: G-CSF: positive control (2 μg/ml) in the in vitro model of ALS (protein, UniProt P09919 31-207, looked up)
Granulocyte …: TPLGPASSLPQSFLLKCLEQVRKIQGDGAALQEKLVSECATYKLCHPEELVLLGHSLGIPWAPLSSCPSQALQLAGCLSQLHSGLFLYQGLLQALEGISPELGPTLDTLQLDVADFATTIWQQMEELGMAPALQPTQGAMPAFASAFQRRAGGVLVASHLQSFLEVSYRVLRHLAQP
In the case of B1, the “cell viability, percentage relative to the control without stress” value in the data set with NSC-34 cells is 76.50±8.3%.
